Data taken from ChEMBL document CHEMBL5385851, “Natural quinazolinones: From a treasure house to promising anticancer leads” (Eur J Med Chem, 2023).
Values after ≈ are worked out from the molar mass of the structure shown. Blank lines part the entries; values can stand above or below the compound they belong to.

Assays:
A549 [1] = test: Cytotoxicity against human A549 cells assessed as reduction in cell growth; format: functional, cell-based
HCT-116 [2] = test: Cytotoxicity against human HCT-116 cells assessed as cell growth inhibition incubated for 24 hrs by MTT based colorimetric assay; format: functional; conditions: HCT-116, 24 h
[3] = Cytotoxicity against human U373 cells assessed as reduction in cell viability after 24 hrs by MTT assay; format: functional, cell-based; conditions: U373 MG
MCF7 [4] = test: Cytotoxicity against human MCF7 cells assessed as reduction in cell viability by SRB assay; format: functional, cell-based
HepG2 [5] = test: Cytotoxicity against human HepG2 cells assessed as reduction in cell viability incubated for 24 hrs by MTT based colorimetric assay; format: functional; conditions: HepG2, 24 h
SK-MEL-28 = test: Cytotoxicity against human SK-MEL-28 cells assessed as reduction in cell viability measured after 24 hrs by MTT assay; format: functional, cell-based; conditions: SK-MEL-28, 24 h
A549 [6] = test: Cytotoxicity against human A549 cells assessed as reduction in cell growth incubated for 5 days by MTT assay; format: functional, cell-based; conditions: A549, 120 h
Hs 683 = test: Cytotoxicity against human Hs 683 cells; format: functional, cell-based
[7] = biological target: Indoleamine 2,3-dioxygenase 1 (Homo sapiens, UniProt P14902); test: Inhibition of IDO1 in human HeLa cells; format: cell-based
SF-268 = test: Cytotoxicity against human SF-268 cells assessed as reduction in cell viability by MTS assay; format: functional, cell-based
MCF7 [8] = test: Cytotoxicity against human MCF7 cells assessed as reduction in cell viability by MTS assay; format: functional, cell-based
NCI-H460 = test: Cytotoxicity against human NCI-H460 cells assessed as reduction in cell viability by MTS assay; format: functional, cell-based
P388 [9] = test: Cytotoxicity against mouse P388 cells assessed as reduction in cell growth; format: functional; conditions: read-out: ED50 (the source's name)
MCF7 [10] = test: Cytotoxicity against human MCF7 cells assessed as reduction in cell viability measured after 48 hrs by MTT assay; format: functional, cell-based; conditions: MCF7, 48 h
A549 [11] = test: Antiproliferative activity against human A549 cells assessed as cell growth inhibition incubated for 48 hrs by MTT assay; format: functional, cell-based; conditions: A549, 48 h
HepG2 [12] = test: Antiproliferative activity against human HepG2 cells assessed as inhibition of cell growth incubated for 48 hrs by MTT based colorimetric assay; format: functional; conditions: HepG2, 48 h
A-375 = test: Antiproliferative activity against human A-375 cells assessed as inhibition of cell growth incubated for 48 hrs by MTT based colorimetric method; format: functional; conditions: A-375, 48 h
HCT-116 [13] = test: Antiproliferative activity against human HCT-116 cells assessed as inhibition of cell growth incubated for 48 hrs by MTT based colorimetric assay; format: functional; conditions: HCT-116, 48 h
P388 [14] = test: Cytotoxicity against mouse P388 cells assessed as inhibition of cell growth; format: functional, cell-based
Bel-7402 = test: Antiproliferative activity against human Bel-7402 cells assessed as inhibition of cell growth measured after 48 hrs by CCK-8 assay; format: functional, cell-based; conditions: Bel-7402, 48 h
KB = test: Cytotoxicity against human KB cells assessed as cell growth inhibition; format: functional, cell-based
[15] = biological target: Tryptophan 2,3-dioxygenase (Homo sapiens, UniProt P48775); test: Inhibition of TDO (unknown origin) expressed in HEK293 cells; format: cell-based
PC-3 = test: Cytotoxicity against human PC-3 cells assessed as inhibition of cell growth; format: functional, cell-based
AGS = test: Cytotoxicity against human AGS cells assessed as reduction in cell viability incubated for 48 hrs by MTT assay; format: functional, cell-based
SNU1 = test: Cytotoxicity against human SNU1 cells assessed as inhibition of cell growth measured after 72 hrs by cell titer glo assay; format: functional, cell-based; conditions: SNU1, 72 h
HCT-116 [16] = test: Cytotoxicity against human HCT-116 cells assessed as reduction in cell viability incubated for 24 hrs by MTT assay; format: functional, cell-based; conditions: HCT-116, 24 h

Sequence of Indoleamine 2,3-dioxygenase 1 (P14902 whole entry): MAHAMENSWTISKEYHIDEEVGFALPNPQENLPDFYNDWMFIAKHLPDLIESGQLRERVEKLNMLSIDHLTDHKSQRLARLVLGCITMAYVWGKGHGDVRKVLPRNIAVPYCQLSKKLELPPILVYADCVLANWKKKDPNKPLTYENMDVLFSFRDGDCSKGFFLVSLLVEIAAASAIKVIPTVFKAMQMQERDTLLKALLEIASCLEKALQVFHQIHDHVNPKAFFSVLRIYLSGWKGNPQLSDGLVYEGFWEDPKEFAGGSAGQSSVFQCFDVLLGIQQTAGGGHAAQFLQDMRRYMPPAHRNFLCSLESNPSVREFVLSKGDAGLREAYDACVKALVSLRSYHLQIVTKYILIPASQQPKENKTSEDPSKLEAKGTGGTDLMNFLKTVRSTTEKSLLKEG
Sequence of Tryptophan 2,3-dioxygenase (P48775 whole entry): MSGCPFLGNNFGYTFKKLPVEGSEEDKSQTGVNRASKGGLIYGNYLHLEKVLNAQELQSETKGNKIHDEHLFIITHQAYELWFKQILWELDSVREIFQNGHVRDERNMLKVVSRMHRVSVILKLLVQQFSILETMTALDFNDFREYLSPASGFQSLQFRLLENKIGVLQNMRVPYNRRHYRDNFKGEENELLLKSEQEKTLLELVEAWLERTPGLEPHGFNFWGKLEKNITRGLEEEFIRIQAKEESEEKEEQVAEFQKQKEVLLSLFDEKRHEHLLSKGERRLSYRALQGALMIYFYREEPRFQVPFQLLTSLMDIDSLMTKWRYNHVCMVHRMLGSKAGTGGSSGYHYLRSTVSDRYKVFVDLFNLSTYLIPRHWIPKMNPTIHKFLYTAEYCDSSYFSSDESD

SMILES: CC(C)[C@H]1NC(=O)[C@@H](C[C@]2(O)c3ccccc3N3C(=O)[C@H](C)N[C@H]32)n2c1nc1ccccc1c2=O
IC50 (A549 [1]): 0.54 µM | IC50 (HCT-116 [2]): 277 µM | IC50 [3]: > 100 µM | IC50 (MCF7 [4]): > 100 µM | IC50 (HepG2 [5]): 115 µM | IC50 (SK-MEL-28): > 100 µM | IC50 (A549 [6]): > 100 µM | IC50 (Hs 683): > 100 µM

IC50 [7]: 0.02 µM
SMILES: CCOC(=O)/C=C/c1ccc2nc3n(c(=O)c2c1)C1C=CC(F)=CC1C3=O (stereo not drawn)

SMILES: COC(=O)CC1(O)c2ccccc2-n2c1nc1ccccc1c2=O (stereo not drawn) [PHAITANTHRINS B]
IC50 (SF-268): > 50 µM | IC50 (MCF7 [8]): > 50 µM | IC50 (NCI-H460): > 50 µM

SMILES: O=C1OCC23Nc4ccccc4C(=O)N2c2ccccc2C13 (stereo not drawn)
IC50 (SF-268): > 50 µM | IC50 (MCF7 [8]): > 50 µM | IC50 (NCI-H460): > 50 µM

SMILES: C[C@@H]1N[C@H]2N(C1=O)c1ccccc1[C@@]2(O)C[C@@H]1C(=O)N[C@@H](C)c2nc3ccccc3c(=O)n21 [FUMIQUINAZOLINE A]
EC50 (P388 [9]): 6.1 µg/mL (≈ 13.7 µM)

SMILES: CC(=O)O[C@H](c1nc2ccccc2c(=O)n1[C@@H]1C[C@]2(OC1=O)c1ccccc1N1C(=O)C(C)(C)N(O)[C@H]12)C(C)C [TRYPTOQUIVALINE]
IC50 (MCF7 [10]): 72 µM

IC50 (A549 [11]): 0.54 µM | IC50 (HepG2 [12]): 58 µM | IC50 (A-375): 108 µM | IC50 (HCT-116 [13]): 114 µM
SMILES: CC(=O)O[C@H](c1nc2ccccc2c(=O)n1[C@@H]1C[C@@]2(OC1=O)c1ccccc1N1C(=O)C(C)(C)N(O)[C@H]12)C(C)C

SMILES: O=C(c1cnc2ccccc2c1)c1nc2ccccc2c(=O)[nH]1
IC50 (P388 [14]): 2.3 µg/mL (≈ 7.63 µM)

IC50 (Bel-7402): 62 µg/mL (≈ 182 µM)
SMILES: CC(C)/C=C1\NC(=O)[C@H](CCC(N)=O)n2c1nc1ccccc1c2=O [AURANTIOMIDE C]

SMILES: C=CC(C)(C)[C@@]12C[C@@]3(O)c4nc5ccccc5c(=O)n4[C@H](C)C(=O)N3[C@@H]1N(C(C)=O)c1ccccc12
IC50 (KB): 61.4 µM

IC50 [7]: 0.02 µM | IC50 [15]: 0.07 µM
SMILES: O=C1c2nc3ccc(CCN4CCOCC4)cc3c(=O)n2C2C=CC(F)=CC12 (stereo not drawn)

SMILES: O=C1/C(=c2\c3ccccc3n3c(=O)c4ccccc4nc23)Nc2ccccc21 [CANDIDINE]
IC50 (SF-268): > 50 µM | IC50 (MCF7 [8]): > 50 µM | IC50 (NCI-H460): > 50 µM

SMILES: COc1ccc2c(=O)n3c(nc2c1)-c1[nH]c2ccccc2c1CC3
IC50 (PC-3): 19.4 µM

SMILES: O=C(C[C@H]1NCCC[C@@H]1O)Cn1cnc2ccccc2c1=O
IC50 (AGS): 0.17 µg/mL (≈ 0.564 µM) | IC50 (SNU1): 0.05 µg/mL (≈ 0.166 µM)

SMILES: O=Cc1c(-c2nc3ccccc3c(=O)[nH]2)[nH]c2ccccc12
IC50 (HCT-116 [16]): 12.1 µM

SMILES: COc1ccc2c(=O)n3ccc4c5ccccc5[nH]c4c3nc2c1
IC50 (PC-3): 22.1 µM

SMILES: O=C1c2c(O)cccc2-n2c1nc1ccccc1c2=O [PHAITANTHRIN C]
IC50 (SF-268): > 50 µM | IC50 (MCF7 [8]): > 50 µM | IC50 (NCI-H460): > 50 µM

SMILES: C[C@@H]1N[C@H]2N(C1=O)c1ccccc1[C@@]2(O)C[C@@H]1C(=O)N[C@H](C)c2nc3ccccc3c(=O)n21
EC50 (P388 [9]): 16 µg/mL (≈ 35.9 µM)
